Experiment [1] deals with T1, human CRTH2 (Homo sapiens, UniProt Q9Y5Y4, V204A).
T1 sequence (Q9Y5Y4 1-395 V204A): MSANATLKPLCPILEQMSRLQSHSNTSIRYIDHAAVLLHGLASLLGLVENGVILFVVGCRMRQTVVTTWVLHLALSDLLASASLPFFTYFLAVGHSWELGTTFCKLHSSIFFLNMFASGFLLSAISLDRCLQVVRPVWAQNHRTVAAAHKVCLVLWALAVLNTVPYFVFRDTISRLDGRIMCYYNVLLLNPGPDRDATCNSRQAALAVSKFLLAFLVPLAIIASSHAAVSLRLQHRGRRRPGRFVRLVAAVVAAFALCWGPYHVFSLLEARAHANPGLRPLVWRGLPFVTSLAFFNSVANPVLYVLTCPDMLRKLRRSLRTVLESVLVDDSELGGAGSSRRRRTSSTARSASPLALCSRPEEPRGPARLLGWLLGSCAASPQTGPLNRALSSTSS
As to the kind of experiment: Receptor binding assay: [3H]PGD2 competition binding on whole COS-7 cells transiently transfected with CRTH2 (also stable HEK293 cells). Also on record: expressed in transfected cells; host or cells: COS-7 (transient, calcium phosphate). The procedure, abridged: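 Whole COS-7 cells transiently transfected with human CRTH2 (calcium phosphate), or stable HEK293 cells, competed against 0.1 nM [3H]PGD2 in HBSS/10 mM HEPES with 1% DMSO, 3 h at 4 °C. Nonspecific binding with 10 μM PGD2; scintillation counting, duplicates. IC50 from curve fitting.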

The target in experiment [2] is T1, human CRTH2. Description: Functional antagonist BRET assay on HEK293 cells stably expressing human CRTH2-Rluc and GFP2-β-arr2. Format: cell-based. Also noted: expressed in transfected cells. Particulars: read-out: Antag. IC50. The procedure, abridged: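 Cells (2×10^6/mL in D-PBS with glucose) were preincubated 15 min with antagonist at 1% DMSO, then agonist and DeepBlueC were co-injected. Emission at 400 and 515 nm was read 5 s later, and the mBRET ratio (515/400 nm) was used to derive IC50 from concentration–response curves.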

[3] abbreviates: receptor binding assay, Table 3.
[4] abbreviates: functional antagonist assay, Table 3.
Setting [5] is: competition with 0.1 nM [3H]PGD2, whole cells, 3 h at 4° C.
Where [6] appears, read: BRET, antagonist incubated 15 minutes prior to agonist.

Drawing on US20110269763A1, “CRTH2 receptor ligands for medicinal uses” (7TM Pharma A/S, priority 2004, published 2011), this text covers IC50 for 33 molecules.

On to `O=C(O)COc1ccc(Br)cc1-c1nc(Cc2ccccc2C(F)(F)F)no1` [D127, {4-Bromo-2-[3-(2-trifluoromethylbenzyl)-[1,2,4]oxadiazol-5-yl]phenoxy}-acetic acid], for which the IC50 in experiment [1] (setting [3]) and in experiment [2] (setting [4]) was less than 0.5 µM in each case.
Turning to `O=C(O)COc1ccc(Br)cc1C(=O)c1cnn(-c2ccccc2)c1` [D1, 4-Bromo-2-(1-phenyl-1H-pyrazole-4-carbonyl)phenoxyacetic acid], the 50% inhibitory concentration (IC50) in experiment [1] (setting [5]) and in experiment [2] (setting [6]) was less than 0.5 µM in each case.
As for `O=C(O)COc1ccc(Br)cc1-c1nc(-c2cccc(C(F)(F)F)c2)no1` [D112, {4-Bromo-2-[3-(3-trifluoromethylphenyl)-[1,2,4]oxadiazol-5-yl]phenoxy}-acetic acid], the IC50 in experiment [1] (setting [3]) and in experiment [2] (setting [4]) was less than 0.5 µM throughout.
As to `O=C(O)COc1ccc(Br)cc1-c1nc(-c2cccc(Cl)c2)no1` [D105, {4-Bromo-2-[3-(3-chlorophenyl)-[1,2,4]oxadiazol-5-yl]phenoxy}acetic acid], the IC50 in experiment [1] (setting [3]) and in experiment [2] (setting [4]) was less than 0.5 µM throughout.
Turning to `O=C(O)COc1ccc(Br)cc1C(=O)c1cnc(-c2ccccc2)s1` [D95, [4-Bromo-2-(2-phenylthiazole-5-carbonyl)phenoxy]acetic acid], the concentration for half-maximal inhibition (IC50) in experiment [1] (setting [5]) and in experiment [2] (setting [6]) was less than 0.5 µM each time.
For `CCOc1ccc(OCC(=O)O)c(C(=O)c2cnn(-c3ccccc3)c2)c1` [D74, [4-Ethoxy-2-(1-phenyl-1H-pyrazole-4-carbonyl)phenoxy]acetic acid], the IC50 in experiment [1] (setting [5]) was 0.5 to 5 µM; in experiment [2] (setting [6]), greater than 5 µM.
For the molecule `COc1ccc(Cc2noc(-c3cc(Br)ccc3OCC(=O)O)n2)cc1` [D118, {4-Bromo-2-[3-(4-methoxy-benzyl)-[1,2,4]oxadiazol-5-yl]-phenoxy}-acetic acid], the IC50 in experiment [1] (setting [3]) and in experiment [2] (setting [4]) was less than 0.5 µM throughout.
For the molecule `N#Cc1ccccc1-n1cc(C(=O)c2cc(Br)ccc2OCC(=O)O)cn1` [D40, {4-Bromo-2-[1-(2-cyano-phenyl)-1H-pyrazole-4-carbonyl]phenoxy}acetic acid], the concentration for half-maximal inhibition (IC50) in experiment [1] (setting [5]) and in experiment [2] (setting [6]) was less than 0.5 µM throughout.
For the molecule `O=C(O)COc1ccc(Br)cc1C(=O)c1cnn(-c2ccccc2OC(F)(F)F)c1` [D52, {4-Bromo-2-[1-(2-trifluoromethoxyphenyl)-1H-pyrazole-4-carbonyl]phenoxy}acetic acid], the IC50 in experiment [1] (setting [5]) and in experiment [2] (setting [6]) was less than 0.5 µM in each case.
Consider `COc1ccccc1-n1cc(C(=O)c2cc(Br)ccc2OCC(=O)O)cn1` [D60, {4-Bromo-2-[1-(2-methoxyphenyl)-1H-pyrazole-4-carbonyl]phenoxy}acetic acid], for which the IC50 in experiment [1] (setting [5]) and in experiment [2] (setting [6]) was less than 0.5 µM each time.
For the molecule `O=C(O)COc1ccc(Br)cc1-c1nc(-c2ccccn2)no1` [D133, [4-Bromo-2-(3-pyridin-[1,2,4]oxadiazol-5-yl)phenoxy]acetic acid], the IC50 in experiment [1] (setting [5]) was less than 0.5 µM; in experiment [2] (setting [6]) it was greater than 5 µM.
For the molecule `CC(Oc1ccc(Br)cc1C(=O)c1cnn(-c2ccc(Cl)cc2Cl)c1)C(=O)O` (stereo not drawn) [D51, 2-{4-Bromo-2-[1-(2,4-dichlorophenyl)-1H-pyrazole-4-carbonyl]phenoxy}propionic acid], the concentration for half-maximal inhibition (IC50) in experiment [1] (setting [5]) and in experiment [2] (setting [6]) was less than 0.5 µM in each case.
With `CC(C)c1ccccc1-n1cc(C(=O)c2cc(Br)ccc2OCC(=O)O)cn1` [D73, {4-Bromo-2-[1-(2-isopropylphenyl)-1H-pyrazole-4-carbonyl]phenoxy}acetic acid], the IC50 in experiment [1] (setting [5]) and in experiment [2] (setting [6]) was less than 0.5 µM throughout.
`Cc1ccc(-n2cc(C(=O)c3cc(Br)ccc3OC(C)C(=O)O)cn2)c(Br)c1` (stereo not drawn) [D50, 2-{4-Bromo-2-[1-(2-bromo-4-methylphenyl)-1H-pyrazole-4-carbonyl]phenoxy}propionic acid]: the IC50 in experiment [1] (setting [5]) and in experiment [2] (setting [6]) was less than 0.5 µM each time.
Consider `COc1ccccc1Cc1noc(-c2cc(Br)ccc2OCC(=O)O)n1` [D119, {4-Bromo-2-[3-(2-methoxy-benzyl)-[1,2,4]oxadiazol-5-yl]-phenoxy}-acetic acid], for which the IC50 in experiment [1] (setting [3]) and in experiment [2] (setting [4]) was less than 0.5 µM throughout.
Consider `O=C(O)COc1ccc(Br)cc1-c1nc(-c2ccccc2)no1` [D99, [4-Bromo-2-(3-phenyl-[1,2,4]oxadiazol-5-yl)phenoxy]acetic acid], for which the IC50 in experiment [1] (setting [3]) and in experiment [2] (setting [4]) was less than 0.5 µM each time.
Turning to `CCc1cccc(CC)c1-n1cc(C(=O)c2cc(Br)ccc2OC(C)C(=O)O)cn1` (stereo not drawn) [D78, 2-{4-Bromo-2-[1-(2,6-diethylphenyl)-1H-pyrazole-4-carbonyl]phenoxy}propionic acid], the IC50 in experiment [1] (setting [5]) and in experiment [2] (setting [6]) was less than 0.5 µM throughout.
Regarding `O=C(O)COc1ccc(Br)cc1CC1SC(=O)N(Cc2ccncc2)C1=O` (stereo not drawn) [D145, 4-Bromo-2-(2,4-dioxo-3-pyridin-4-ylmethylthiazolidin-5-ylmethyl)phenoxyacetic acid], the IC50 in experiment [1] (setting [5]) and in experiment [2] (setting [6]) was less than 0.5 µM in each case.
Turning to `Cc1ccc(Cc2noc(-c3cc(Br)ccc3OCC(=O)O)n2)cc1` [D126, {4-Bromo-2-[3-(4-methylbenzyl)-[1,2,4]oxadiazol-5-yl]phenoxy}acetic acid], the IC50 in experiment [1] (setting [3]) and in experiment [2] (setting [4]) was less than 0.5 µM each time.
Take `O=C(O)COc1ccc(Br)cc1-c1nc(Cc2ccccc2)no1` [D115, [2-(3-Benzyl-[1,2,4]oxadiazol-5-yl)-4-bromo-phenoxy]-acetic acid]: the IC50 in experiment [1] (setting [3]) and in experiment [2] (setting [4]) was less than 0.5 µM in each case.
`O=C(O)COc1ccc(Br)cc1C=NNc1nncc(-c2ccccc2)n1` [D152]: the 50% inhibitory concentration (IC50) in experiment [1] (setting [5]) is less than 0.5 µM; in experiment [2] (setting [6]), 0.5 to 5 µM.
Take `O=C(O)COc1ccc(Br)cc1C(=O)c1cnn(-c2ccc(OC(F)(F)F)cc2)c1` [D32]: the IC50 in experiment [1] (setting [5]) and in experiment [2] (setting [6]) was less than 0.5 µM throughout.
Take `O=C(O)COc1ccc(Br)cc1-c1nc(Cc2cccc(Cl)c2)no1` [D130, {4-Bromo-2-[3-(3-chlorobenzyl)-[1,2,4]oxadiazol-5-yl]phenoxy}acetic acid]: the IC50 in experiment [1] (setting [3]) and in experiment [2] (setting [4]) was less than 0.5 µM in each case.
Turning to `O=C(O)COc1ccc(Br)cc1C(=O)c1cnn(-c2cccc3ccccc23)c1` [D82, [4-Bromo-2-(1-naphthalen-1-yl-1H-pyrazole-4-carbonyl)phenoxy]acetic acid], the IC50 in experiment [1] (setting [5]) and in experiment [2] (setting [6]) was less than 0.5 µM each time.
Turning to `O=C(O)COc1ccc(Br)cc1C(=O)c1cc(-c2ccccc2)no1` [D97, [4-Bromo-2-(3-phenylisoxazole-5-carbonyl)phenoxy]acetic acid], the IC50 in experiment [1] (setting [5]) and in experiment [2] (setting [6]) was less than 0.5 µM in each case.
Regarding `O=C(O)COc1ccc(Br)cc1C(=O)c1cnn(-c2ccc(Cl)c(Cl)c2)c1` [D61, {4-Bromo-2-[1-(3,4-dichlorophenyl)-1H-pyrazole-4-carbonyl]phenoxy}acetic acid], the concentration for half-maximal inhibition (IC50) in experiment [1] (setting [5]) and in experiment [2] (setting [6]) was less than 0.5 µM in each case.
Consider `O=C(O)COc1ccc(Br)cc1-c1nc(-c2ccc(OC(F)(F)F)cc2)no1` [D103, {4-Bromo-2-[3-(4-trifluoromethoxyphenyl)-[1,2,4]oxadiazol-5-yl]phenoxy}acetic acid], for which the 50% inhibitory concentration (IC50) in experiment [1] (setting [3]) and in experiment [2] (setting [4]) was less than 0.5 µM throughout.
Regarding `O=C(O)COc1ccc(Br)cc1C(=O)c1cnn(-c2c(Cl)cncc2Cl)c1` [D80, {4-Bromo-2-[1-(3,5-dichloropyridin-4-yl)-1H-pyrazole-4-carbonyl]phenoxy}acetic acid], the IC50 in experiment [1] (setting [5]) and in experiment [2] (setting [6]) was less than 0.5 µM throughout.
Turning to `O=C(O)COc1ccc(Br)cc1-c1nc(C2(c3ccccc3)CC2)no1` [D132, {4-Bromo-2-[3-(1-phenylcyclopropyl)-[1,2,4]oxadiazol-5-yl]phenoxy}acetic acid], the IC50 in experiment [1] (setting [5]) and in experiment [2] (setting [6]) was less than 0.5 µM throughout.
With `O=C(O)COc1ccc([N+](=O)[O-])cc1C(=O)c1cnn(-c2ccc(Cl)cc2)c1` [D19, 4-Nitro-2-[1-(4-chlorophenyl)-1H-pyrazole-4-carbonyl]phenoxyacetic acid], the half-maximal inhibitory concentration (IC50) in experiment [1] (setting [5]) and in experiment [2] (setting [6]) was less than 0.5 µM each time.
For `CC(Oc1ccc(Br)cc1C(=O)c1cnn(Cc2ccccc2)c1)C(=O)O` (stereo not drawn) [D57, 2-[2-(1-Benzyl-1H-pyrazole-4-carbonyl)-4-bromophenoxy]propionic acid], the 50% inhibitory concentration (IC50) in experiment [1] (setting [5]) and in experiment [2] (setting [6]) was less than 0.5 µM in each case.
Turning to `COc1cccc(-c2noc(-c3cc(Br)ccc3OCC(=O)O)n2)c1` [D104, {4-Bromo-2-[3-(3-methoxyphenyl)-[1,2,4]oxadiazol-5-yl]phenoxy}acetic acid], the IC50 in experiment [1] (setting [3]) and in experiment [2] (setting [4]) was less than 0.5 µM throughout.
For the molecule `O=C(O)COc1ccc(Br)cc1-c1nc(Cc2c(Cl)cccc2Cl)no1` [D121, {4-Bromo-2-[3-(2,6-dichloro-benzyl)-[1,2,4]oxadiazol-5-yl]-phenoxy}-acetic acid], the IC50 in experiment [1] (setting [3]) and in experiment [2] (setting [4]) was less than 0.5 µM each time.

One may read the IC50 as the concentration needed to halve the response being measured.
